Activity calls are given as the source filed them. The rule behind the calls is not given here.
Tested on: CCRIS mutagenicity, Ames/micronucleus/aberration tests
Assay: CCRIS mutagenicity studies
[1] = Test System: AMES SALMONELLA TYPHIMURIUM, Strain/Indicator: TA98, Metabolic Activation: NONE, Method: STANDARD PLATE
[2] = Test System: AMES SALMONELLA TYPHIMURIUM, Strain/Indicator: TA98, Metabolic Activation: RAT, LIVER, S-9, AROCLOR 1254, Method: STANDARD PLATE
[3] = Test System: AMES SALMONELLA TYPHIMURIUM, Strain/Indicator: TA100, Metabolic Activation: NONE, Method: STANDARD PLATE
[4] = Test System: AMES SALMONELLA TYPHIMURIUM, Strain/Indicator: TA100, Metabolic Activation: RAT, LIVER, S-9, AROCLOR 1254, Method: STANDARD PLATE
[5] = Test System: AMES SALMONELLA TYPHIMURIUM, Strain/Indicator: TA1535, Metabolic Activation: NONE, Method: STANDARD PLATE
[6] = Test System: AMES SALMONELLA TYPHIMURIUM, Strain/Indicator: TA1535, Metabolic Activation: RAT, LIVER, S-9, AROCLOR 1254, Method: STANDARD PLATE
[7] = Test System: AMES SALMONELLA TYPHIMURIUM, Strain/Indicator: TA1537, Metabolic Activation: NONE, Method: STANDARD PLATE
[8] = Test System: AMES SALMONELLA TYPHIMURIUM, Strain/Indicator: TA1537, Metabolic Activation: RAT, LIVER, S-9, AROCLOR 1254, Method: STANDARD PLATE
[9] = Test System: AMES SALMONELLA TYPHIMURIUM, Strain/Indicator: TA1538, Metabolic Activation: NONE, Method: STANDARD PLATE
[10] = Test System: AMES SALMONELLA TYPHIMURIUM, Strain/Indicator: TA1538, Metabolic Activation: RAT, LIVER, S-9, AROCLOR 1254, Method: STANDARD PLATE
[11] = Test System: AMES SALMONELLA TYPHIMURIUM, Strain/Indicator: TA98, Metabolic Activation: NONE, Method: PREINCUBATION
[12] = Test System: AMES SALMONELLA TYPHIMURIUM, Strain/Indicator: TA100, Metabolic Activation: NONE, Method: PREINCUBATION
[13] = Test System: AMES SALMONELLA TYPHIMURIUM, Strain/Indicator: TA102, Metabolic Activation: NONE, Method: PREINCUBATION

With O=C([O-])c1cc(N=Nc2ccc(-c3ccc(N/N=c4/c(=O)cc/c(=N\Nc5cc(S(=O)(=O)[O-])ccc5[O-])c4=O)cc3)cc2)ccc1[O-].[Cu+2].[Na+].[Na+] the mutagenic call (End Point: IN VITRO CHROMOSOMAL ABERRATIONS, Test System: CHINESE HAMSTER OVARY CELLS, Metabolic Activation: NONE) was “inactive; negative”, the mutagenic call (End Point: IN VITRO CHROMOSOMAL ABERRATIONS, Test System: CHINESE HAMSTER OVARY CELLS, Metabolic Activation: RAT, LIVER, S-9, AROCLOR 1254) was “inactive; negative” and the mutagenic call (Test System: AMES SALMONELLA TYPHIMURIUM, Strain/Indicator: TA98, Metabolic Activation: HAMSTER, LIVER, S-9, Method: PREINCUBATION (PRIVAL METHOD)) was “active; positive”. The mutagenic call [1] was “inactive; negative”, the mutagenic call [2] was “inactive; negative” and the mutagenic call [3] was “inactive; negative”. For the same molecule, the mutagenic call [4] was “inactive; negative”, the mutagenic call [5] was “inactive; negative” and the mutagenic call [6] was “inactive; negative”. For the same molecule, the mutagenic call [7] was “inactive; negative”, the mutagenic call [8] was “inactive; negative” and the mutagenic call [9] was “inactive; negative”. The mutagenic call [10] was “inactive; negative”.

For Cc1ccsc1, the mutagenic call [11] was “inactive; negative”, the mutagenic call (Test System: AMES SALMONELLA TYPHIMURIUM, Strain/Indicator: TA98, Metabolic Activation: RAT, LIVER, S-9, AROCLOR 1254, Method: PREINCUBATION) was “inactive; negative” and the mutagenic call [12] was “inactive; negative”. For the same molecule, the mutagenic call (Test System: AMES SALMONELLA TYPHIMURIUM, Strain/Indicator: TA100, Metabolic Activation: RAT, LIVER, S-9, AROCLOR 1254, Method: PREINCUBATION) was “inactive; negative”, the mutagenic call [13] was “inactive; negative” and the mutagenic call (Test System: AMES SALMONELLA TYPHIMURIUM, Strain/Indicator: TA102, Metabolic Activation: RAT, LIVER, S-9, AROCLOR 1254, Method: PREINCUBATION) was “inactive; negative”.

CCCCN(CC(O)c1ccc(O)cc1)N=O (configuration not stated) was tested, and the mutagenic call [11] was “inactive; negative”, the mutagenic call (Test System: AMES SALMONELLA TYPHIMURIUM, Strain/Indicator: TA98, Method: PREINCUBATION) was “inactive; negative” and the mutagenic call [12] was “inactive; negative”. For the same molecule, the mutagenic call (Test System: AMES SALMONELLA TYPHIMURIUM, Strain/Indicator: TA100, Method: PREINCUBATION) was “inactive; negative”.

In the case of COc1cc(/C=C/C(=O)CC(=O)/C=C/c2ccc(O)c(OC)c2)ccc1O, the mutagenic call (End Point: IN VITRO CHROMOSOMAL ABERRATIONS, Test System: CHO CELLS, Metabolic Activation: NONE) is reported as “active; positive (structural changes); presence of iron significantly decreased number o”, the mutagenic call (End Point: IN VITRO CHROMOSOMAL ABERRATIONS, Test System: CHO-9 CELLS, Metabolic Activation: NONE) is reported as “active; positive (structural changes)” and the mutagenic call (End Point: IN VIVO CHROMOSOMAL ABERRATIONS, Test System: BONE MARROW CELLS, Species: RAT, Strain/Sex: WISTAR/MALE, Route: GAVAGE) is reported as “inactive; negative; curcumin reduced mutagenic effect of cyclophosphamide”. For the same molecule, the mutagenic call (End Point: In vitro chromosomal aberrations, Test System: Chinese hamster ovary (CHO-9) cells, Metabolic Activation: None) was “active; positive (structural changes)”, the mutagenic call (End Point: In vitro micronucleus, Test System: Human lymphocytes, Metabolic Activation: None) was “inactive; negative” and the mutagenic call (Test System: AMES SALMONELLA TYPHIMURIUM, Strain/Indicator: TA98, Metabolic Activation: HAMSTER, LIVER, S-9, AROCLOR 1254 (10%), Method: PREINCUBATION) was “inactive; negative”. The mutagenic call (Test System: AMES SALMONELLA TYPHIMURIUM, Strain/Indicator: TA98, Metabolic Activation: HAMSTER, LIVER, S-9, AROCLOR 1254, Method: STANDARD PLATE) was “inactive; negative”, the mutagenic call [11] was “inactive; negative” and the mutagenic call [1] was “inactive; negative”. For the same molecule, the mutagenic call (Test System: AMES SALMONELLA TYPHIMURIUM, Strain/Indicator: TA98, Metabolic Activation: RAT, LIVER, S-9, AROCLOR 1254 (10%), Method: PREINCUBATION) was “inactive; negative”, the mutagenic call [2] was “inactive; negative” and the mutagenic call (Test System: AMES SALMONELLA TYPHIMURIUM, Strain/Indicator: TA100, Metabolic Activation: HAMSTER, LIVER, S-9, AROCLOR 1254 (10%), Method: PREINCUBATION) was “inactive; negative”. The mutagenic call (Test System: AMES SALMONELLA TYPHIMURIUM, Strain/Indicator: TA100, Metabolic Activation: HAMSTER, LIVER, S-9, AROCLOR 1254, Method: STANDARD PLATE) was “inactive; negative”, the mutagenic call [12] was “inactive; negative” and the mutagenic call [3] was “inactive; negative”. The mutagenic call (Test System: AMES SALMONELLA TYPHIMURIUM, Strain/Indicator: TA100, Metabolic Activation: RAT, LIVER, S-9, AROCLOR 1254 (10%), Method: PREINCUBATION) was “inactive; negative”, the mutagenic call [4] was “inactive; negative” and the mutagenic call (Test System: AMES SALMONELLA TYPHIMURIUM, Strain/Indicator: TA1535, Metabolic Activation: HAMSTER, LIVER, S-9, AROCLOR 1254 (10%), Method: PREINCUBATION) was “inactive; negative”. The mutagenic call (Test System: AMES SALMONELLA TYPHIMURIUM, Strain/Indicator: TA1535, Metabolic Activation: HAMSTER, LIVER, S-9, AROCLOR 1254, Method: STANDARD PLATE) was “inactive; negative”, the mutagenic call (Test System: AMES SALMONELLA TYPHIMURIUM, Strain/Indicator: TA1535, Metabolic Activation: NONE, Method: PREINCUBATION) was “inactive; negative” and the mutagenic call [5] was “inactive; negative”. For the same molecule, the mutagenic call (Test System: AMES SALMONELLA TYPHIMURIUM, Strain/Indicator: TA1535, Metabolic Activation: RAT, LIVER, S-9, AROCLOR 1254 (10%), Method: PREINCUBATION) was “inactive; negative”, the mutagenic call [6] was “inactive; negative” and the mutagenic call (Test System: AMES SALMONELLA TYPHIMURIUM, Strain/Indicator: TA1537, Metabolic Activation: HAMSTER, LIVER, S-9, AROCLOR 1254 (10%), Method: PREINCUBATION) was “inactive; negative”. For the same molecule, the mutagenic call (Test System: AMES SALMONELLA TYPHIMURIUM, Strain/Indicator: TA1537, Metabolic Activation: HAMSTER, LIVER, S-9, AROCLOR 1254, Method: STANDARD PLATE) was “inactive; negative”, the mutagenic call (Test System: AMES SALMONELLA TYPHIMURIUM, Strain/Indicator: TA1537, Metabolic Activation: NONE, Method: PREINCUBATION) was “inactive; negative” and the mutagenic call [7] was “inactive; negative”. The mutagenic call (Test System: AMES SALMONELLA TYPHIMURIUM, Strain/Indicator: TA1537, Metabolic Activation: RAT, LIVER, S-9, AROCLOR 1254 (10%), Method: PREINCUBATION) was “inactive; negative”, the mutagenic call [8] was “inactive; negative” and the mutagenic call (Test System: AMES SALMONELLA TYPHIMURIUM, Strain/Indicator: TA1538, Metabolic Activation: HAMSTER, LIVER, S-9, AROCLOR 1254, Method: STANDARD PLATE) was “inactive; negative”. For the same molecule, the mutagenic call [9] was “inactive; negative” and the mutagenic call [10] was “inactive; negative”.

With OCCS the mutagenic call [12] was “inactive; negative”.

For COc1ccc2c3c(cccc13)OC([N+](=O)[O-])=C2, the mutagenic call [1] was “inactive; negative”, the mutagenic call (Test System: AMES SALMONELLA TYPHIMURIUM, Strain/Indicator: TA98, Metabolic Activation: S-9, Method: STANDARD PLATE) was “inactive; negative” and the mutagenic call [3] was “active; positive”. For the same molecule, the mutagenic call (Test System: AMES SALMONELLA TYPHIMURIUM, Strain/Indicator: TA100, Metabolic Activation: S-9, Method: STANDARD PLATE) was “inactive; negative”.

For Cc1cc2nc3ccc(C)c(N)c3nc2cc1N, the mutagenic call [11] was “inactive; negative” and the mutagenic call (Test System: AMES SALMONELLA TYPHIMURIUM, Strain/Indicator: TA98, Metabolic Activation: RAT, LIVER, S-9, PCB, Method: PREINCUBATION) was “active; positive”.

With CC(O)C(C)[N+](=O)[O-] (configuration not stated) the mutagenic call [11] was “inactive; negative”, the mutagenic call (Test System: AMES SALMONELLA TYPHIMURIUM, Strain/Indicator: TA98, Metabolic Activation: RAT, LIVER, S-9, AROCLOR, Method: PREINCUBATION) was “inactive; negative” and the mutagenic call [12] was “inactive; negative”. The mutagenic call [13] was “inactive; negative” and the mutagenic call (Test System: AMES SALMONELLA TYPHIMURIUM, Strain/Indicator: TA102, Metabolic Activation: RAT, LIVER, S-9, AROCLOR, Method: PREINCUBATION) was “inactive; negative”.
